Legend:
[1] = target: T1, TetOn hLOX-1 CHO cells (human LOX-1) (Homo sapiens, UniProt P78380); assay: Binding of DiI-labeled oxidized LDL to LOX-1 expressing cells under low temperature conditions; assay type: cell-based; conditions: trimeric procyanidins of different structure at 0.1 μg/ml, on ice; Example 5
T1 construct: expressed in transfected cells
Method: It is said that caveola or clathrin is also involved in the incorporation of oxidized LDL into the cells, in addition to that mediated by LOX-1.
First, 100 μl of the suspension of LOX-1 expressing cells adjusted with the above culture medium so as to achieve a density of 1×10^5 cells/ml was dispensed into each well of a 96-well plate (manufactured by Costar, Product Number: 3603). In addition, in order to induce the expression of LOX-1, doxycycline (manufactured by Calbiochem) was added so that the final concentration thereof was 1 μg/ml. As a control, a well where no doxycycline was added so that no expression was induced was also prepared. This 96-well plate was incubated at 37° C. for 24 hours in a CO2 incubator, and each well was then washed with the aforementioned FBS(−) medium cooled to 4° C. […]
This 96-well plate was observed using the In Cell Analyzer 1000 system (manufactured by GE healthcare) to measure the DiI fluorescence intensity and the number of nuclei per each well, and the fluorescence intensity per single cell was determined in the same manner as in Example 2.
Further, the oxidized LDL binding rate (%) was calculated by the following formula (3). […]
Subsequently, the effects of these four types of trimeric procyanidins on the inhibition of the bonding between LOX-1 and oxidized LDL were evaluated. […]

ex-hLOX-1 protein = target: T2, ex-hLOX-1 protein (Homo sapiens, UniProt P78380); assay: BIACORE measurement of direct bonding of procyanidins and LOX-1; conditions: monomers to heptamers at 20 μM; peak 3 trimers at 1.25-20 μM; 120 s binding, 120 s dissociation; read-out: Dissociation Constant
T2 construct: IgK secretion signal (printed 'IgK selection signal') (N, cleaved yes); His tag (from vector pSecTag/FRT/V5His); made in house; host or cells: 293F cells (FreeStyle 293 Expression System)
Method: The direct bonding of procyanidins and LOX-1 was evaluated using the BIACORE system.
LOX-1 was fixed on a sensor chip, and the BIACORE measurement was carried out using the procyanidins as the liquid phase. The BIACORE measurements and analyses were conducted using the BIACORE 2000 (GE Healthcare). In addition, the sensor chip CM5 was used as a sensor chip, and the ex-hLOX-1 protein was immobilized on the sensor chip by employing the amine coupling method. A HEPES solution (consisted of 10 mM HEPES, 150 mM NaCl and 2 mM CaCl2) was degassed and used as the running buffer.
Among the procyanidins made to flow through the chip, monomeric to heptameric procyanidins were each adjusted to 20 μM using the running buffer and used for the measurement.
In addition, when the procyanidins were reacted in the sensor chip, the flow rate was set to 20 μl/min, and the dissociation constant was measured with 120 seconds of binding and 120 seconds of dissociation.

| Kd (ex-hLOX-1 protein) [µM] | Structure (SMILES) | oxidized LDL binding rate (LOX-1 inhibiting activity) [1] |
| --- | --- | --- |
| – | Oc1cc(O)c2c(c1)O[C@H](c1ccc(O)c(O)c1)[C@H](O)[C@H]2c1c(O)cc2c(c1O)[C@H](c1c(O)cc(O)c3c1O[C@H](c1ccc(O)c(O)c1)[C@@H](O)C3)[C@@H](O)[C@@H](c1ccc(O)c(O)c1)O2 (single isomer, unassigned; peak 2) [peak 2, epi (4β → 6) epi (4β → 8) cat] | exhibited stronger LOX-1 inhibiting activities than the trimeric procyanidins represented by peaks 1 and 4 |
| 3.8 | Oc1cc(O)c2c(c1)O[C@H](c1ccc(O)c(O)c1)[C@H](O)[C@H]2c1c(O)cc2c(c1O)C(c1c(O)cc(O)c3c1O[C@H](c1ccc(O)c(O)c1)[C@H](O)C3)[C@@H](O)[C@@H](c1ccc(O)c(O)c1)O2 (single isomer, unassigned; peak 3) [peak 3, epi (4β → 6) epi (4β → 8) epi] | exhibited stronger LOX-1 inhibiting activities than the trimeric procyanidins represented by peaks 1 and 4 |
